Assay results from article PMC5366289 (Biochemistry, 2016).
Entries after “also recorded” stand apart in the source; their conditions may differ.

B1: colicin E1: 522-residue channel-forming colicin (protein, UniProt P02978 1-522, looked up)
Colicin-E1: METAVAYYKDGVPYDDKGQVIITLLNGTPDGSGSGGGGGKGGSKSESSAAIHATAKWSTAQLKKTQAEQAARAKAAAEAQAKAKANRDALTQRLKDIVNEALRHNASRTPSATELAHANNAAMQAEDERLRLAKAEEKARKEAEAAEKAFQEAEQRRKEIEREKAETERQLKLAEAEEKRLAALSEEAKAVEIAQKKLSAAQSEVVKMDGEIKTLNSRLSSSIHARDAEMKTLAGKRNELAQASAKYKELDELVKKLSPRANDPLQNRPFFEATRRRVGAGKIREEKQKQVTASETRINRINADITQIQKAISQVSNNRNAGIARVHEAEENLKKAQNNLLNSQIKDAVDATVSFYQTLTEKYGEKYSKMAQELADKSKGKKIGNVNEALAAFEKYKDVLNKKFSKADRDAIFNALASVKYDDWAKHLDQFAKYLKITGHVSFGYDVVSDILKIKDTGDWKPLFLTLEKKAADAGVSYVVALLFSLLAGTTLGIWGIAIVTGILCSYIDKNKLNTINEVLGI

What was measured:
[1] = Far-UV circular dichroism, helical content of T-domain peptides; type: physicochemical
[2] = target: TolC (Escherichia coli, UniProt P02930); settings: BLM; concentration not given; listed as synthetic peptide 100–120
[3] = test system: E. coli cells; settings: ref K. S. Jakes, unpublished data; listed as T100–120; cited from earlier work
[4] = test system: E. coli, TolC Gly43 mutants; settings: cited from earlier work
[5] = cytoplasmic membrane; cited from earlier work

TolC, sequence (P02930 23-493): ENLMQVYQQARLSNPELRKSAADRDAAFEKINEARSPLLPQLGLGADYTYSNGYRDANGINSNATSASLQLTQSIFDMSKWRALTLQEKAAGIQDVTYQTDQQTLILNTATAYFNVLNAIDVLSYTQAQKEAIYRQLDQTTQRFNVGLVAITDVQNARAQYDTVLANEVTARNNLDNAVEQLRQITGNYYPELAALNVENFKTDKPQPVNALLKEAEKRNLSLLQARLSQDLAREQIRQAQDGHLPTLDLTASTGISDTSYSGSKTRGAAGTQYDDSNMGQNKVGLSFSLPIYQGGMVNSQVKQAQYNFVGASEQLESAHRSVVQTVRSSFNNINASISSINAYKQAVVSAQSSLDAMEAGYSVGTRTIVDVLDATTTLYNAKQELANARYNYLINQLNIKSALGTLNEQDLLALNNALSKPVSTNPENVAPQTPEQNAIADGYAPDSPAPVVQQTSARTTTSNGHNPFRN

Molecule | no. of residues, helix ([1]; from helical content by far-UV CD, DichroWeb, tags assumed unordered) [residues] | no. of residues, unordered ([1]; total number in peptide excluding tags minus residues in helices) [residues] | occlusion of TolC channels, in words [2] | protection of E. coli cells against colicin E1 cytotoxicity [3] | killing efficiency of colicin E1 on TolC Gly43 mutants ([4]; larger side chains at TolC residue 43) | decrease in colicin E1 cytotoxicity by TolC G43 mutation ([4]; mutation to residue with larger side chains) | channel conductance [5]
H-EALRHNASRTPSATELAHANN-OH [100–120 ^e] | 0 | 21 | did not occlude TolC channels | inability of the synthetic peptide T100–120, which lacks ordered secondary structure, to occlude TolC channels, and to protect E. coli cells; also recorded: does not protect E. coli cells | – | – | –
B1 | – | – | – | – | reduced the killing efficiency | ≤ 1000 -fold | approximately 10^6 ions/s per channel
